Results from patent USRE38424E1 (The United States of America as represented by the …, priority 1994, dated 2004).
Where two headings read alike, the source gives them in different places.

How the values were obtained:
[1] = system: ovarian cancer; conditions: cited from earlier work; for Response rate: taxol without G-CSF
[2] = in vivo
Experimental: Patients with histologically proven epithelial ovarian cancer with bidimensionally measurable disease were candidates for the study.
All patients received subsequent cycles of therapy on the general medical oncology in-patient ward.
A G-CSF dose of 10 μg/kg/day was used. […] This was determined by checking WBC and platelet counts on a twice weekly basis.
All toxicities were graded according to the NCI-CTEP criteria, with the exception of peripheral neuropathy which was graded as described previously herein.
Dose limiting toxicity (DLT) was defined as any of the following criteria occurring in two of three patients treated at a given dose level: (1) reversible non-hematologic toxicity of at least grade 3; (2) irreversible non-hematologic toxicity of at least grade 2; or (3) the persistence of a nadir with an absolute granulocyte count of less than 500 cells/mm^3 or platelet count of less than 25,000/mm^3 for five days or more.

[3] = From the text: A total of 47 patients were included in this study. All patients had recurrent advanced stage epithelial ovarian cancer confirmed on histologic review at the Laboratory of Pathology, National Cancer Institute (NCI). Borderline, mixed, and germ cell histologies were excluded.
Pretreatment evaluation consisted of a physical examination, laboratory studies with CA-125, radiographic evaluation by CT scan, baseline electromyogram with nerve conduction velocity studies (EMG/NCV), creatinine clearance, chest radiograph, and EKG. On-study staging was completed within two weeks of starting therapy. Physical examination and laboratory evaluations were repeated with every cycle, except for CBC which was evaluated twice weekly. Patients underwent restaging every two cycles (i.e., every 6 weeks), which included the repetition of any radiographic studies that were abnormal upon entry. EMG/NCV studies were repeated as indicated to determine the presence of any progressive neurologic toxicity.
The G-CSF was supplied to the Division of Cancer Treatment by Amgen, Inc. (Thousand Oaks, Calif.). This G-CSF administration continued until the absolute granulocyte count of the patient was greater than 1500/μl for two consecutive days after the nadir (i.e., the total count for the two days was at least 3000/μl ) or until the total white blood cell count was greater than 30,000/μl. Patients with responding disease or stable disease continued on the study and were reevaluated at two cycle intervals.
Patients manifesting second or third degree heart block had remaining cycles given in the intensive care unit with appropriate interventions. Antiemetics were given as needed.
More specifically, this was undertaken by increasing the dose of G-CSF administered on the next treatment cycle.
The particulars pertaining to the flexible G-CSF dosage regimen are as follows. […] The dose of G-CSF was reduced by 5 μg/kg/day if severe bone pain occurred at these higher G-CSF dosage levels, i.e., at levels greater than or equal to 10 μg/kg/day.

[4] = female, human, in vivo, 1 cycle
[5] = female, human, in vivo, 21 days (per cycle)

CC(=O)O[C@H]1C(=O)[C@@]2(C)[C@H]([C@H](OC(=O)c3ccccc3)[C@]3(O)C[C@H](OC(=O)[C@H](O)[C@@H](NC(=O)c4ccccc4)c4ccccc4)C(C)=C1C3(C)C)[C@]1(OC(C)=O)CO[C@@H]1C[C@@H]2O [Taxol, taxol]
Objective response rate ([1]; "standard" dose of taxol (about 135 mg/m^2/ 21 days)): about 30% | Response rate ([1]; Einzig et al.): 21% | Response rate ([1]; Gynecologic Oncology Group (Thigpen et al.)): 36% | Response rate ([1]; McGuire et al.): 33% | Patients with objective responses ([1]; taxol 110 to 200 mg/m^2, cisplatin-sensitive and cisplatin-resistant advanced stage epithelial ovarian cancer): about 30% | Dose at which dose limiting toxicity (DLT) was reached ([2]; female, human): 300 mg/m2/21 days | Duration of granulocytopenia occurring in spite of G-CSF support ([2]; female, human): less than 5 days | Persistence of neurologic symptoms beyond the peak ([2]; female, human): 1 to 2 weeks | Persistence of symptoms of grade 3 neuropathy ([2]; female, human): up to 6 months | Time of nadir heart rate into therapy, range ([2]; female, human): 1 to 21 h | Mean nadir heart rate (±SEM) ([2]; female, human, 1 cycle): 60±11 bpm | Nadir heart rate, range ([2]; female, human, 1 cycle): 46-84 bpm | Number of individuals whose heart rate fell below 60 bpm ([2]; female, human, 1 cycle): 10 | Mean nadir heart rate ([2]; female, human, 2 cycle): 61±8 bpm | Nadir heart rate, range ([2]; female, human, 2 cycle): 46-75 bpm | Number of individuals whose heart rate fell below 60 bpm ([2]; female, human, 2 cycle): 6 | Alopecia and grade 1 to 2 myalgias observed [2]: all patients | Patients in whom mucositis was observed [2]: two | Patients with peripheral neuropathy of grade 3 [2]: three | Alopecia, Grade 1 & 2 ([3]; female, human, in vivo): 38 No. (%) | Bone Pain, Grade 3 & 4 ([3]; female, human, in vivo): 3 (6) No. (%) | Cardiac toxicity, Grade 1 & 2 ([3]; female, human, in vivo): 35 (74) No. (%) | Constitutional toxicity, Grade 1 & 2 ([3]; female, human, in vivo): 43 No. (%) | Constitutional toxicity, Grade 3 & 4 ([3]; female, human, in vivo): 4 (9) No. (%) | Diarrhea, Grade 1 & 2 ([3]; female, human, in vivo): 29 No. (%) | Diarrhea, Grade 3 & 4 ([3]; female, human, in vivo): 2 (4) No. (%) | Hematologic toxicity, Anemia, Grade 1 & 2 ([3]; female, human, in vivo): 17 (47) No. (%) | Hematologic toxicity, Anemia, Grade 3 & 4 ([3]; female, human, in vivo): 30 (47) No. (%) | Hematologic toxicity, Granulocytes, Grade 1 & 2 ([3]; female, human, in vivo): 1 (2) No. (%) | Hematologic toxicity, Granulocytes, Grade 3 & 4 ([3]; female, human, in vivo): 46 (98) No. (%) | Hematologic toxicity, Platelets, Grade 1 & 2 ([3]; female, human, in vivo): 24 (51) No. (%) | Hematologic toxicity, Platelets, Grade 3 & 4 ([3]; female, human, in vivo): 19 (40) No. (%) | Hypersensitivity Reactions, Grade 1 & 2 ([3]; female, human, in vivo): 31 (66) No. (%) | Hypersensitivity Reactions, Grade 3 & 4 ([3]; female, human, in vivo): 2 (4) No. (%) | Median time of neutrophil nadir ([3]; female, human, in vivo): 7 days | Mucositis, Grade 1 & 2 ([3]; female, human, in vivo): 31 (66) No. (%) | Mucositis, Grade 3 & 4 ([3]; female, human, in vivo): 3 (6) No. (%) | Myalgias, Grade 1 & 2 ([3]; female, human, in vivo): 43 No. (%) | Neurologic toxicity, Grade 1 & 2 ([3]; female, human, in vivo): 36 (77) No. (%) | Neurologic toxicity, Grade 3 & 4 ([3]; female, human, in vivo): 3 (6) No. (%) | Patients who continued at the starting dosage combination throughout therapy ([3]; female, human, in vivo): 45% | Patients who continued on that dose combination ([3]; female, human, in vivo): 12 patients | Patients who required red blood cell transfusions ([3]; female, human, in vivo): 55% | Patients with Mobitz I block ([3]; female, human, in vivo): 4% | Patients with Mobitz II block ([3]; female, human, in vivo): 4% | Patients with dose reduction for taxol-induced peripheral neuropathy ([3]; female, human, in vivo): 3 patients | Patients with first degree atrioventricular block ([3]; female, human, in vivo): 4% | Patients with grade 3 and 4 hematologic toxicities ([3]; female, human, in vivo): 98% | Patients with mild ototoxicity ([3]; female, human, in vivo): 11% | Patients with myalgias and arthralgias (grades 1 and 2) ([3]; female, human, in vivo): less than 50% | Time of neutrophil nadir, range ([3]; female, human, in vivo): 5 to 11 days | Vomiting, Grade 1 & 2 ([3]; female, human, in vivo): 23 No. (%) | Median nadir heart rate [3, 4]: 52 bpm | Nadir heart rate, range [3, 4]: 38-59 bpm | Patients with asymptomatic sinus bradycardia [3, 4]: 34% | Cycles associated with neutropenia [3, 5]: 24% | Cycles complicated by fever and neutropenia [3, 5]: 10% | Episodes of complete heart block ([3]; in vivo): No episodes | Patients with hypersensitivity reactions ([3]; in vivo): Two | Patients with rapid atrial fibrillation requiring digitalization ([3]; in vivo): one | Patients with supraventricular tachycardia ([3]; in vivo): two | Treatment related death due to polymicrobial sepsis ([3]; one of 47 patients): 2%
